Test [1] relates to Entamoeba histolytica. In words: In vitro antiprotozoal activity against Entamoeba histolytica. In kind it is functional, organism-based.
The species entered for test [2] is Rattus norvegicus. The test is described as follows: Tested for inhibition of tubulin polymerization in rat brain at a concentration of 0.015 uM. Format: functional.
The species named for test [3] is Rattus norvegicus. In words: Tested for inhibition of tubulin polymerization in rat brain at a concentration of 0.024 uM. Format: functional.
The species entered for test [4] is Rattus norvegicus. The test is described as follows: Tested for inhibition of tubulin polymerization in rat brain at a concentration of 3*10e-3 uM. In kind it is functional.
The species entered for test [5] is Rattus norvegicus. In words: Tested for inhibition of tubulin polymerization in rat brain at a concentration of 3*10e-5 uM. In kind it is functional.
In test [6] the test system is Trichinella spiralis. In words: Percent reduction of viability of Trichinella spiralis muscle larvae at a concentration of 3*10e-4 uM. In kind it is functional.
Test [7] has as its system Trichinella spiralis. In words: Percent reduction of viability of Trichinella spiralis muscle larvae at a concentration of 3*10e-5 uM. Format: functional.
For test [8], the system named is Trichinella spiralis. The test is described as follows: Percent reduction of viability of Trichinella spiralis muscle larvae at a concentration of 3*10e-6 uM; No reduction observed. Format: functional, organism-based.
Test [9] deals with Trichinella spiralis. The test is described as follows: Percent reduction of viability of Trichinella spiralis muscle larvae at a concentration of 3*10e-3 uM. In kind it is functional.
Test [10] relates to Giardia intestinalis. In words: In vitro antiprotozoal activity against Giardia lamblia. In kind it is functional, organism-based. To be noted: Giardia duodenalis.
Test [11] has as its system Trichinella spiralis. The test is described as follows: Percent reduction of viability of Trichinella spiralis muscle larvae at a concentration of 3*10e-3 uM; No reduction observed. In kind it is functional, organism-based.
Test [12] concerns Trichinella spiralis. The test is described as follows: Percent reduction of viability of Trichinella spiralis muscle larvae at a concentration of 3*10e-4 uM; No reduction observed. Format: functional, organism-based.
Test [13] has as its system Trichinella spiralis. In words: Percent reduction of viability of Trichinella spiralis muscle larvae at a concentration of 3*10e-5 uM; No reduction observed. In kind it is functional, organism-based.
In test [14] the test system is Trichinella spiralis. In words: Percent reduction of viability of Trichinella spiralis muscle larvae at a concentration of 3*10e-6 uM. Format: functional.

Usually IC50 stands for the concentration at which inhibition is half-maximal. Read a high IC50 as weaker potency in that assay. Take `FC(F)(F)c1nc2cc(Cl)c(Cl)cc2[nH]1`: the IC50 in test [1] came to 11 nM; in test [10], 78 nM. Besides, the Viscosity in test [2] turned out to be 6.68; in [3] it was 7.22; in test [4], 7.03; in test [5] it was 7. Further, the Reduction in test [6] is 9%; in test [7], 1%; in test [8], “No reduction”; in [9] it was 19%.

As to `FC(F)(F)c1nc2ccccc2[nH]1`, the IC50 in [1] amounted to 69 nM; in test [10] it was 107 nM. The Viscosity in test [2] amounted to 7.34; in test [3] it was 6.92; in [4] it was 7.56; in test [5], 7.55. Also, the Reduction in [6] was 3%; in test [7] it was 1%; in test [8] it was “No reduction”; in [9] it was 9%.

As for `FC(F)(F)c1nc2cc(Cl)ccc2[nH]1`, the figures for the IC50 in test [1] and in [10] were 22 nM and 1280 nM, respectively. Besides, the Viscosity amounted to 7.14 in test [2], 6.47 in [3], 6.7 in test [4] and 6.59 in [5]. Moreover, the Reduction result in test [11], in [12], in test [13] and in [8] was “No reduction” each time.

As to `Cn1c(C(F)(F)F)nc2cc(Cl)ccc21`, the IC50 in test [1] was 46 nM; in test [10] it was 42 nM. Besides, the Viscosity in test [2] turned out to be 6.94; in test [3], 7.54; in [4], 7.58; in test [5] it was 7.3. The Reduction in test [6] came out at 16%; in test [7], 9%; in test [14], 2%; in [9], 39%.

Turning to `CCCSc1ccc2[nH]c(NC(=O)OC)nc2c1` [ALBENDAZOLE], the IC50 in test [1] turned out to be 56300 nM; in test [10] it was 37 nM. In addition, the Viscosity in test [4] was 2.07; in test [5] it was 7.04. Also, the Reduction in [6] came to 20%; in test [7] it was 13%; in test [14], 6%; in test [9], 30%.

Take `Cn1c(C(F)(F)F)nc2cc(Cl)c(Cl)cc21`: the half-inhibitory concentration (IC50) in test [1] amounted to 33 nM; in [10], 260 nM. For the same compound, the Viscosity is recorded as 6.63 in test [2], 6.94 in test [3], 7.63 in [4] and 6.93 in test [5]. The Reduction stood at 9% in test [6], 4% in [7], 2% in test [14] and 15% in [9].

As to `Cc1ncc([N+](=O)[O-])n1CCO` [METRONIDAZOLE], the results for the 50% inhibitory concentration (IC50) in test [1] and in test [10] were 350 nM and 1220 nM, respectively.

Turning to `Cn1c(C(F)(F)F)nc2ccccc21`, the 50% inhibitory concentration (IC50) in [1] came to 40 nM; in test [10], 64 nM. For the same compound, the Viscosity is reported as 7.31 in test [2], 7.16 in test [3], 7.41 in test [4] and 6.68 in test [5]. For the same compound, the Reduction in test [6] was 9%; in [7] it was 1%; in test [8], “No reduction”; in test [9], 12%.

On to `Cn1c(C(F)(F)F)nc2ccc(Cl)cc21`, for which the results for the half-inhibitory concentration (IC50) in test [1] and in test [10] were 8 nM and 127 nM, respectively. Further, the Viscosity is 7.07 in test [2], 7.26 in test [3], 7.39 in test [4] and 6.44 in test [5]. For the same compound, the Reduction entry in [11], in test [12], in [13] and in [8] was “No reduction” in each case.

(Values after ChEMBL document CHEMBL1133780, “Synthesis and antiparasitic activity of 2-(trifluoromethyl)-benzimidazole derivatives” (Bioorg Med Chem Lett, 2001).)
